Reference: the NIST ThermoML archive (doi:10.1016/j.jct.2008.10.002)

Assays:
[1] = xn = mol fraction of the nth substance listed; settings: 101.3 kPa, Liquid, Vibrating tube method
[2] = molar heat capacity at constant pressure; xn = mol fraction of the nth substance listed; settings: 293.15 K, 101.3 kPa, Liquid, Small sample (50 mg) DSC

CCn1cc[n+](C)c1.O=S(=O)([O-])C(F)(F)F [1-ethyl-3-methylimidazolium trifluoromethanesulfonate] + O
mass density [kg/m3], [1]
Settings	293.15 K	298.15 K	303.15 K	308.15 K	313.15 K	318.15 K
x1 = 0.0186	1063.6	1061.7	1059.5	1057.2	1054.7	1052.1
x1 = 0.0522	1142.6	1139.6	1136.5	1133.3	1130	1126.7
x1 = 0.0995	1208.9	1205.3	1201.6	1197.8	1193.9	1190.1
x1 = 0.2037	1282.4	1278.3	1274.2	1270	1265.8	1261.6
x1 = 0.2952	1315.7	1311.5	1307.2	1303	1298.7	1294.4
x1 = 0.3868	1336.6	1332.4	1328.1	1323.9	1319.6	1315.3
x1 = 0.4761	1350.7	1346.4	1342.2	1337.9	1333.7	1329.4
x1 = 0.5771	1362.4	1358.1	1353.9	1349.7	1345.4	1341.2
x1 = 0.6617	1370	1365.7	1361.5	1357.3	1353.1	1348.9
x1 = 0.8398	1381.8	1377.5	1373.3	1369.1	1364.9	1360.8
x1 = 0.8646	1383.1	1378.8	1374.6	1370.4	1366.3	1362.1

[2]
Settings	molar heat capacity at constant pressure [J/K/mol]
x1 = 0.0186	83.2
x1 = 0.0522	94.2
x1 = 0.0995	108.1
x1 = 0.2037	138
